From article PMC10970486 (Bioconjugate chemistry, 2024)

Biological target: MelBSt (melibiose permease) (Salmonella enterica, UniProt P30878)
Experiment: displacement of D2G, Trp to dansyl FRET
Type: binding
Details: excess melibiose added after D2G; extract in DDM, TMG-A13 or TMG-P10,8

MelBSt (melibiose permease), sequence (P30878 whole entry): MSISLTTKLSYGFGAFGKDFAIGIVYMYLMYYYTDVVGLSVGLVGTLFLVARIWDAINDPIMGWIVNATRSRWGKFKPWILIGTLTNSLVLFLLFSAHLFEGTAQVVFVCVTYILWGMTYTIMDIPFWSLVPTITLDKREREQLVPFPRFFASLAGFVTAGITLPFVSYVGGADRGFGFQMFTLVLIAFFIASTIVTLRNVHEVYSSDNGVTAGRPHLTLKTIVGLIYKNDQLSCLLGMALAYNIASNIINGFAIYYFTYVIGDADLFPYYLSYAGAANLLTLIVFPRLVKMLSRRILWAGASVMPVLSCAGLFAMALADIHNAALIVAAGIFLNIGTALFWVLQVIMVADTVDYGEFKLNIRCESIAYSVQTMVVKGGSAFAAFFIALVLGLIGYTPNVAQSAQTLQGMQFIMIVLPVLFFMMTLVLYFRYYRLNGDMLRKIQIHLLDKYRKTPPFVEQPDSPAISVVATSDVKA

OC[C@H]1O[C@H](OC[C@H]2OC(O)[C@H](O)[C@@H](O)[C@@H]2O)[C@H](O)[C@@H](O)[C@H]1O (stereo partly shown) [melibiose]
displacement of D2G, Trp to dansyl FRET: excess melibiose replaces the dansyl ligand with the non-fluorescent substrate in the active site
